Key:
Format in all cases: in vivo
Monochoria vaginalis = experiment: Test Example 3 paddy field treatment; conditions: Table 6, paddy field treatment, active ingredient 1 kg per hectare, 21st day after dropping, index 0-5
Protocol: (§1) A plastic pot of 130 cm^2 was filled with paddy soil, and soil puddling was carried out to adjust the submerged depth to 4 cm. Subsequently, seeds of Echinochloa crusgalli, Monochoria vaginalis, Ammannia multiflora and Scirpus juncoides were sowed, and rice (Oryza sative, variety: Koshihikari) of two-leaf period was transplanted by 2 rice plants of 1 stub per pot at a depth of 3 cm. On the 10th day after the transplantation, the wettable powder prepared in Formulation Example 1 was diluted with water such that the amount of the active ingredient became 1 kg per hectare, and then dropped to diffuse on the water surface. On the 21st day after the dropping, observation and evaluation were carried out according to the aforesaid criteria.
(§2) Herbicidal activity was evaluated based on the following criteria.
(§3) • 5: herbicidal effect of not less than 90%, or phytotoxicity of 90% or more • 4: herbicidal effect of not less than 70% and less than 90%, or phytotoxicity of 70% or more and less than 90% • 3: herbicidal effect of not less than 50% and less than 70%, or phytotoxicity of 50% or more and less than 70% • 2: herbicidal effect of not less than 30% and less than 50%, or phytotoxicity of 30% or more and less than 50% • 1: herbicidal effect of not less than 10% and less than 30%, or phytotoxicity of 10% or more and less than 30% • 0: herbicidal effect of not less than 0% and less than 10%, or phytotoxicity of 0% or more and less than 10%

Scirpus juncoides = experiment: Test Example 3 paddy field treatment; conditions: Table 6, paddy field treatment, active ingredient 1 kg per hectare, 21st day after dropping, index 0-5
Protocol: as §1, §2, §3

Ammannia multiflora = experiment: Test Example 3 paddy field treatment; conditions: Table 6, paddy field treatment, active ingredient 1 kg per hectare, 21st day after dropping, index 0-5
Protocol: as §1, §2, §3

Echinochloa crusgalli = experiment: Test Example 3 paddy field treatment; conditions: Table 6, paddy field treatment, active ingredient 1 kg per hectare, 21st day after dropping, index 0-5
Protocol: as §1, §2, §3

Rice (Oryza sativa) = experiment: Test Example 3 paddy field treatment, crop phytotoxicity; conditions: Table 6, paddy field treatment, transplanted rice, active ingredient 1 kg per hectare, 21st day after dropping, index 0-5
Protocol: as §1, §2, §3

Row | Structure (SMILES) | Herbicidal activity MV (Monochoria vaginalis) | Herbicidal activity SJ (Scirpus juncoides) | Herbicidal activity AM (Ammannia multiflora) | Herbicidal activity EC (Echinochloa crusgalli) | Herbicidal activity (phytotoxicity) OS (Rice (Oryza sativa))
1 | CNC(=O)C(Cn1cc(C)c(-c2ccc(OC)cc2OC(F)F)n1)=NOC [Compound 91] | 5 (herbicidal effect of not less than 90%, or phytotoxicity of 90% or more) | 4 (herbicidal effect of not less than 70% and less than 90%, or phytotoxicity of 70% or more and less than 90%) | 5 (herbicidal effect of not less than 90%, or phytotoxicity of 90% or more) | 5 (herbicidal effect of not less than 90%, or phytotoxicity of 90% or more) | 0 (herbicidal effect of not less than 0% and less than 10%, or phytotoxicity of 0% or more and less than 10%)
2 | CON=C(Cn1cc(C)c(-c2ccccc2)n1)C(=O)N1CCCCC1 [Compound 119] | 4 (herbicidal effect of not less than 70% and less than 90%, or phytotoxicity of 70% or more and less than 90%) | 3 (herbicidal effect of not less than 50% and less than 70%, or phytotoxicity of 50% or more and less than 70%) | 4 (herbicidal effect of not less than 70% and less than 90%, or phytotoxicity of 70% or more and less than 90%) | 3 (herbicidal effect of not less than 50% and less than 70%, or phytotoxicity of 50% or more and less than 70%) | 0 (herbicidal effect of not less than 0% and less than 10%, or phytotoxicity of 0% or more and less than 10%)
3 | CON=C(Cn1cc(C)c(-c2ccccc2)n1)C(=O)NNC(=O)OC [Compound 123] | 4 (herbicidal effect of not less than 70% and less than 90%, or phytotoxicity of 70% or more and less than 90%) | 3 (herbicidal effect of not less than 50% and less than 70%, or phytotoxicity of 50% or more and less than 70%) | 4 (herbicidal effect of not less than 70% and less than 90%, or phytotoxicity of 70% or more and less than 90%) | 3 (herbicidal effect of not less than 50% and less than 70%, or phytotoxicity of 50% or more and less than 70%) | 0 (herbicidal effect of not less than 0% and less than 10%, or phytotoxicity of 0% or more and less than 10%)
